{"source": "patent US20230382871A1", "about": "“CSF1R KINASE INHIBITOR AND USE THEREOF” (SHANGHAI INSTITUTE OF MATERIA MEDICA, CHINESE ACADEMY OF …, priority 2020, published 2023)", "key": {"[1]": {"system": "mouse astrocytoma DBT subcutaneous xenografts", "assay": "Mouse astrocytoma DBT subcutaneous tumor model, alone or combined with anti-PD-1 antibody", "format": "in vivo, BALB/c mice", "conditions": "alone, 5 mg/kg po twice a day, 28 days", "method": "Mouse astrocytoma DBT cell suspensions were injected subcutaneously into the right axillary fossa of BALB/c mice under aseptic conditions. The diameters of the subcutaneous xenografts in nude mice were measured with a vernier caliper. The animals were randomly grouped after the xenografts reached an average volume of 100 to 200 mm^3. Compound I was administered orally at a dose of 5 mg/kg (alone or in combination with an anti-PD-1 antibody) twice a day for 28 consecutive days. An anti-PD-1 antibody (Bio X Cell, InVivoMAb anti-mouse PD-1 (CD279) (cat. No. BE0146)) was administered intraperitoneally at a dose of 10 mg/kg (alone or in combination with Compound I) once every three days for 28 consecutive days. Throughout the experiment, the diameters of the xenografts were measured twice a week and the mice were weighed at the same time. The tumor volume (TV) was calculated as TV=½×a×b^2 where “a” and “b” denote the length and width of a tumor, respectively. The relative tumor volume (RTV) was calculated from the measurement results with the calculation formula RTV=Vt/V0, in which V0 is the tumor volume measured upon administration after grouping (i.e., D0) and Vt is the tumor volume from each measurement.\nFor all dose groups, n=9. The experimental data were analyzed for significant differences using the t-test. […]"}, "[2]": {"system": "phosphorylated AKT (p-AKT) in BMDM", "assay": "Western blot of CSF1-stimulated AKT phosphorylation in BMDM", "format": "cell-based", "conditions": "Mus musculus, 100 nM, 2 h, CSF1 50 ng/mL 15 min", "method": "Bone marrow-derived macrophages, after induction by CSF1 for 5 to 7 days, were centrifuged to remove the previous medium. 2 mL of a serum-free medium was added. […] CSF1 factor was added at a final concentration of 50 ng/mL for stimulation for 15 minutes. The culture medium was discarded, and cells were washed three times with pre-cooled PBS. Then, the cells were lysed by adding 1×SDS gel loading buffer. The cell lysates were heated in a boiling water bath for 15 min, and then stored at −20° C.\nA protein sample as described above was subjected to SDS-PAGE electrophoresis. Then, the protein was transferred to a nitrocellulose membrane using a semi-dry electrotransfer system. The nitrocellulose membrane was placed in a blocking solution (5% skim milk in TBS-T) and incubated for 2 h at room temperature. Then, the membrane was allowed to react with a primary antibody overnight at 4° C. After the membrane was washed with TBS-T for three times with 15 min each time, the membrane was allowed to react in a secondary antibody dilution at room temperature for 1-2 h. […]\nThe inhibitory effect of Compound I on CSF1R and its signaling pathway in mouse primary macrophages was detected by immunoblotting assays. Each experiment was independently repeated three times and all experimental results were quantified. […]"}, "BMDM cells": {"system": "BMDM cells", "assay": "CCK8 cell proliferation inhibition assay on CSF1-stimulated bone marrow-derived macrophages", "format": "cell-based, mice (BALB/c)", "conditions": "Mus musculus, 72 h exposure", "method": "Mice (BALB/c) were subjected to euthanasia and then immersed in 75% alcohol for 3-5 min. The tibias and femurs of the mice were removed with ophthalmic forceps and ophthalmic clips on an ultraclean table. The tibial and femoral joints were cut off and bone marrow cells were washed out with a sterile buffer. Bone marrow cells were filtered with a 70 µm nylon membrane. The filtrate was centrifuged and the supernatant was discarded. An erythrocyte lysate was added to the pellets, which were allowed to incubate for 3-4 min. Then, a sterile buffer was added to stop the lysis reaction. The reactant was centrifuged and the supernatant was discarded, thereby yielding bone marrow cell pellets. The cells were cultured in 1640 medium (supplemented with FBS and 10 ng/mL of CSF1) for 5 to 7 days and identified as macrophages by flow cytometry. CCK8 cell counting kits were used in this assay. Bone marrow-derived macrophages, after induction by CSF1 for 5 to 7 days, were seeded into 96-well culture plates and allowed to incubate overnight. Then, the cells were exposed to compounds at various concentrations for 72 h. A blank control group was set. 10 μL of CCK8 reagent was added to each well and the places were placed in an incubator for 4 to 12 h. The plates were read with a microplate reader at a wavelength of 450 nm. […] Each experiment was independently repeated for three times."}}}
{"compound": "Cc1cc(NC(=O)c2cccc3cc(-c4cccc5[nH]nc(N)c45)ccc23)ccc1F", "note": "[Compound I]", "values": [{"measurement": "in vivo growth of DBT tumors", "setting": "[1]", "value": "no significant inhibitory activity"}, {"measurement": "inhibition at 0.1 µM", "setting": "[2]", "value": 64.4, "unit": "%"}, {"measurement": "IC50", "setting": "BMDM cells", "value": 0.093, "unit": "µM"}]}
